Read-outs that look alike come from different tables or passages of the source.
Columns and labels:
[1] = tested on: SKNO; experiment: Cell proliferation of cancerous cell lines; assay type: cell-based; settings: SKNO cell line; read-out: Antineoplastic effect on cell proliferation, IC50
[2] = tested on: KBM7; experiment: Cell proliferation of cancerous cell lines; assay type: cell-based; settings: KBM-7; KBM7 cell line; read-out: Antineoplastic effect on cell proliferation, IC50
[3] = tested on: MUTZ-8; experiment: Cell proliferation of cancerous cell lines; assay type: cell-based; settings: MUTZ-8 cell line; read-out: Antineoplastic effect on cell proliferation, IC50
[4] = tested on: UT-7; experiment: Cell proliferation of cancerous cell lines; assay type: cell-based; settings: Homo sapiens, UT7; UT-7 cell line; read-out: Antineoplastic effect on cell proliferation, IC50
[5] = tested on: EOL1; experiment: Cell proliferation of cancerous cell lines; assay type: cell-based; settings: Homo sapiens; EOL1 cell line; read-out: Antineoplastic effect on cell proliferation, IC50
[6] = tested on: MOLM-13; experiment: Cell proliferation of cancerous cell lines; assay type: cell-based; settings: Homo sapiens; MOLM-13 cell line; read-out: Antineoplastic effect on cell proliferation, IC50
[7] = tested on: NB-4; experiment: Cell proliferation of cancerous cell lines; assay type: cell-based; settings: Homo sapiens; NB-4 cell line; read-out: Antineoplastic effect on cell proliferation, IC50
[8] = tested on: MUTZ-2; experiment: Cell proliferation of cancerous cell lines; assay type: cell-based; settings: MUTZ-2 cell line; read-out: Antineoplastic effect on cell proliferation, IC50
[9] = tested on: AML3; experiment: Cell proliferation of cancerous cell lines; assay type: cell-based; settings: AML3 cell line; read-out: Antineoplastic effect on cell proliferation, IC50
[10] = tested on: AML4; experiment: Cell proliferation of cancerous cell lines; assay type: cell-based; settings: AML4 cell line; read-out: Antineoplastic effect on cell proliferation, IC50
[11] = tested on: KG1; experiment: Cell proliferation of cancerous cell lines; assay type: cell-based; settings: Homo sapiens, KG-1; KG1 cell line; read-out: Antineoplastic effect on cell proliferation, IC50
[12] = tested on: KG1a; experiment: Cell proliferation of cancerous cell lines; assay type: cell-based; settings: Homo sapiens, KG-1a; KG1a cell line; read-out: Antineoplastic effect on cell proliferation, IC50
[13] = tested on: HL-60; experiment: Cell proliferation of cancerous cell lines; assay type: cell-based; settings: Homo sapiens; HL-60 cell line; read-out: Antineoplastic effect on cell proliferation, IC50
[14] = tested on: MonoMac; experiment: Cell proliferation of cancerous cell lines; assay type: cell-based; settings: MonoMac cell line; read-out: Antineoplastic effect on cell proliferation, IC50
[15] = tested on: AML5; experiment: Cell proliferation of cancerous cell lines; assay type: cell-based; settings: AML5 cell line; read-out: Antineoplastic effect on cell proliferation, IC50
[16] = tested on: KU-812; experiment: Cell proliferation of cancerous cell lines; assay type: cell-based; settings: Homo sapiens, KU812; KU-812 cell line; read-out: Antineoplastic effect on cell proliferation, IC50
[17] = tested on: Z-138; experiment: Cell proliferation of cancerous cell lines; assay type: cell-based; settings: Homo sapiens; Z-138 cell line; read-out: Antineoplastic effect on cell proliferation, IC50
[18] = tested on: LY-1; experiment: Cell proliferation of cancerous cell lines; assay type: cell-based; settings: Ly1; LY-1 cell line; read-out: Antineoplastic effect on cell proliferation, IC50
[19] = in vivo; settings: mouse
Procedure: PK assays were performed in mice (n=3). […] The following pharmacokinetic parameters were calculated.
The compounds were orally administered at 20 mg/kg and plasma samples were collected at 15, 30 minutes and 1, 2, 4, 6 and 8 hours after administration. The following pharmacokinetic parameters were calculated.

[20] = tested on: CB; experiment: Cell proliferation, CB sample of Table 2; settings: read-out: Antineoplastic effect on cell proliferation, IC50
[21] = tested on: AML samples; experiment: Cell proliferation of cancerous samples from patients
[22] = tested on: H3K27Ac and H3K4me2 in OCI-AML5; experiment: Flow cytometry of H3K27Ac, H3K4me2 and H3; assay type: cell-based; settings: OCI-AML5, 24 hrs; UM171 250 nM, Panobinostat 5 nM, TCP 10 μM
[23] = tested on: CD201 and CD86 in OCI-AML5; experiment: FACS analysis of CD201 and CD86; assay type: cell-based; settings: OCI-AML5, 24 hrs; UM171 250 nM, Panobinostat 5 nM, TCP 10 μM
Procedure: (§1) Mouse anti-human antibodies were used to detect CD34 (APC or BV421-BD Biosciences), CD45RA (PE-BD Biosciences), CD86 (PerCP-eFluor710-eBioscience), CD90 (PECY7- BioLegend), and CD201 (APC-BioLegend). Flow cytometry acquisitions were performed on a Canto II cytometer (BD Biosciences) and data analysis was performed using FowJo software (Tree Star, Ashland, Oreg., USA) and GraphPad Prism software. Dead cells were excluded using 7AAD staining.

[24] = tested on: CD201 and CD86 in OCI-AML1 cells; experiment: Flow cytometry of CD201 and CD86 surface expression; assay type: cell-based; settings: Panobinostat 5 nM, TCP 5 μM
Procedure: as §1

[25] = tested on: CD34+ cord blood cells; settings: 7 days culture, UM171 at 5 nM and LSD1 inhibitor (TCP)
Procedure: as §1

Cn1nnc(-c2ccc3c(c2)[nH]c2ncnc(NCCCN4CCCCC4)c23)n1 [UM681]
IC50 [1]: 1 to 10 µM
IC50 [2]: > 10 µM
IC50 [3]: > 10 µM
IC50 [4]: > 10 µM
IC50 [5]: 0.25 to 1 µM
IC50 [6]: 0.25 to 1 µM
IC50 [7]: 1 to 10 µM
IC50 [8]: 1 to 10 µM
IC50 [9]: 1 to 10 µM
IC50 [10]: 0.25 to 1 µM
IC50 [11]: 1 to 10 µM
IC50 [12]: 1 to 10 µM
IC50 [13]: 1 to 10 µM
IC50 [14]: 1 to 10 µM
IC50 [15]: 1 to 10 µM
IC50 [16]: 1 to 10 µM
IC50 [17]: 1 to 10 µM
IC50 [18]: > 10 µM
bioavailability ([19]; female, po, 20 mg/kg): 39%
bioavailability ([19]; male, po, 20 mg/kg): 31%
Vd ([19]; iv, 1 mg/kg): 14.3 L/kg
clearance ([19]; iv, 1 mg/kg): 109 mL/min/kg
half-life ([19]; iv, 1 mg/kg): 1.9 h
AUC ([19]; po, 20 mg/kg): 2.45 µM·h
Cmax ([19]; po, 20 mg/kg): 200 nM
Tmax ([19]; po, 20 mg/kg): 4 h
IC50 [20]: 1 to 10 µM
IC50 ([21]; read-out: Antineoplastic effect on cell proliferation, IC50, AML sample 04H063): 1 to 10 µM
IC50 ([21]; read-out: Antineoplastic effect on cell proliferation, IC50, AML sample 05H094): 1 to 10 µM
IC50 ([21]; read-out: Antineoplastic effect on cell proliferation, IC50, AML sample 05H149): 1 to 10 µM
IC50 ([21]; read-out: Antineoplastic effect on cell proliferation, IC50, AML sample 06H045): 1 to 10 µM
IC50 ([21]; read-out: Antineoplastic effect on cell proliferation, IC50, AML sample 06H088): > 10 µM
IC50 ([21]; read-out: Antineoplastic effect on cell proliferation, IC50, AML sample 06H117): 1 to 10 µM
IC50 ([21]; read-out: Antineoplastic effect on cell proliferation, IC50, AML sample 07H005): 1 to 10 µM
IC50 ([21]; read-out: Antineoplastic effect on cell proliferation, IC50, AML sample 07H038): 1 to 10 µM
IC50 ([21]; read-out: Antineoplastic effect on cell proliferation, IC50, AML sample 07H045): > 10 µM
IC50 ([21]; read-out: Antineoplastic effect on cell proliferation, IC50, AML sample 07H125): 1 to 10 µM
IC50 ([21]; read-out: Antineoplastic effect on cell proliferation, IC50, AML sample 07H135): 1 to 10 µM
IC50 ([21]; read-out: Antineoplastic effect on cell proliferation, IC50, AML sample 07H151): > 10 µM
IC50 ([21]; read-out: Antineoplastic effect on cell proliferation, IC50, AML sample 08H018): > 10 µM
IC50 ([21]; read-out: Antineoplastic effect on cell proliferation, IC50, AML sample 09H010): 1 to 10 µM
IC50 ([21]; read-out: Antineoplastic effect on cell proliferation, IC50, AML sample 09H046): > 10 µM
IC50 ([21]; read-out: Antineoplastic effect on cell proliferation, IC50, AML sample 09H079): 1 to 10 µM
IC50 ([21]; read-out: Antineoplastic effect on cell proliferation, IC50, AML sample 09H115): 1 to 10 µM
IC50 ([21]; read-out: Antineoplastic effect on cell proliferation, IC50, AML sample 10H022): 0.25 to 1 µM
IC50 ([21]; read-out: Antineoplastic effect on cell proliferation, IC50, AML sample 10H127): 1 to 10 µM
IC50 ([21]; read-out: Antineoplastic effect on cell proliferation, IC50, AML sample 11H002): 1 to 10 µM
IC50 ([21]; read-out: Antineoplastic effect on cell proliferation, IC50, AML sample 11H046): 0.25 to 1 µM
IC50 ([21]; read-out: Antineoplastic effect on cell proliferation, IC50, AML sample 11H103): 1 to 10 µM
IC50 ([21]; read-out: Antineoplastic effect on cell proliferation, IC50, AML sample 12H045): 1 to 10 µM
IC50 ([21]; read-out: Antineoplastic effect on cell proliferation, IC50, AML sample 12H058): 1 to 10 µM
IC50 ([21]; read-out: Antineoplastic effect on cell proliferation, IC50, AML sample 12H096): > 10 µM
IC50 ([21]; read-out: Antineoplastic effect on cell proliferation, IC50, AML sample 12H106): > 10 µM
IC50 ([21]; read-out: Antineoplastic effect on cell proliferation, IC50, AML sample 12H151): 1 to 10 µM
IC50 ([21]; read-out: Antineoplastic effect on cell proliferation, IC50, AML sample 13H100): 1 to 10 µM
IC50 ([21]; read-out: Antineoplastic effect on cell proliferation, IC50, AML sample 13H150): 1 to 10 µM

N[C@@H]1C[C@H]1c1ccccc1 (racemic) [TCP, tranylcypromine]
H3K27Ac and H3K4me2 marks [22]: induces
CD201 and CD86 expression compared to DMSO [23]: upregulation
CD86 expression in shKBTBD4 expressing cells [24]: induces
CD34+, CD34+CD201+CD90+ and CD34+CD86+ subsets, combination with UM171 [25]: synergistic effect

Source: patent US20230073512A1, “MODULATORS OF CULLIN 3 ADAPTOR KBTBD4 AS ANTI-CANCER COMPOUNDS” (UNIVERSITE DE MONTREAL, priority 2019, published 2023)
